# Data published in PubChem BioAssay (NCI).
#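 Step 1: Grow cells in 96-well plates. Step 2: Expose to compound for 48 hours at 5 concentrations. Step 3: Interpolate endpoints linearly; if unreached, use highest concentration. TGI is the concentration that stops growth completely.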
# Test system: HOP-62 NSCLC
# Assay: DTP human tumour cell line panel, 48 h
row,SMILES,TGI [µM]
1,Cc1cc(C)nc(NC(=O)c2ccc(Br)s2)c1,> 100
2,CC(C)(C)OC(=O)N1CCc2[nH][nH]c(=O)c2C1,> 100
3,COC(=O)c1cc2c3c(ccc2[nH]1)N(C(=O)c1cc2cc(OC)c(OC)c(OC)c2[nH]1)CC3CCl (stereo not given),> 72
4,OCCCCCCCCCCCOc1ccc(C2OCC3(CO2)COC(c2ccc(OCCCCCCCCCCCO)cc2)OC3)cc1 (stereo not given),> 50
5,O=Cc1cn(CCCCCCCCCCCCn2cc(C=O)c3ccccc32)c2ccccc12,> 100
6,COC(=O)c1ccc(C(=O)NC(Cc2ccc(Oc3cc(CC(NC(=O)c4ccccc4C(=O)OC)C(=O)OC)ccc3OC)cc2)C(=O)OC)cc1 (stereo not given),> 100
7,Nc1c2c(nc3cc(F)c(F)cc13)CCC2,> 100
8,Cc1cc2c(cc1Cl)SC(NS(=O)(=O)c1ccc(Cl)cc1)=NS2(=O)=O,> 100
9,CS(=O)(=O)O[C@H]1CN2C[C@@H](O)[C@@H](O)[C@H]2[C@H]1CO,> 100
10,COC(=O)CCC1=CCC2(SC)C(=O)Nc3cccc1c32 (stereo not given),> 100
11,CCCCc1c(N(C)C)c(OC(C)=O)c(-c2cn(C)c3ccccc23)oc1=O,55.7
12,CC(C)(C)[Si](C)(C)OCC1OC(n2ccc(N)nc2=O)C(O[Si](C)(C)C(C)(C)C)C1O[Si](C)(C)C(C)(C)C (stereo not given),4.85
13,Nc1ccc2c(c1)N(C(=O)c1cc3cc(NC(=O)c4cc5ccccc5o4)ccc3[nH]1)CC2CCl (stereo not given),0.804
14,O=C(O)c1ccc(N=C(C(=Nc2ccc(C(=O)O)cc2)c2ccccc2)c2ccccc2)cc1,> 100

# Test system: SN12C renal
# Assay: DTP human tumour cell line panel, 48 h
row,SMILES,TGI [µM]
1,OC1[C@@H]2[C@@H](O)[C@H](O)[C@@H](O)N2C[C@@H]1O (stereo not given in full),> 100
2,OCC1OC(c2cccc3cc(O)c(O)cc23)CC1O (stereo not given),> 100
3,CC(C)(Cl)C(Br)CCC(C)(Cl)C(Br)CBr (stereo not given),54.2
4,O=C1NC(NNc2ccccc2)=N/C1=C\c1ccccc1O,> 100
5,Cc1cc(C)nc(NC(=O)c2ccc(Br)s2)c1,> 100
6,CC(C)(C)OC(=O)N1CCc2[nH][nH]c(=O)c2C1,> 100
7,OCCCCCCCCCCCOc1ccc(C2OCC3(CO2)COC(c2ccc(OCCCCCCCCCCCO)cc2)OC3)cc1 (stereo not given),> 50
8,O=Cc1cn(CCCCCCCCCCCCn2cc(C=O)c3ccccc32)c2ccccc12,> 100
9,COC(=O)c1ccc(C(=O)NC(Cc2ccc(Oc3cc(CC(NC(=O)c4ccccc4C(=O)OC)C(=O)OC)ccc3OC)cc2)C(=O)OC)cc1 (stereo not given),> 100
10,COc1cc(C2SCC(=O)N2c2ccccn2)cc(OC)c1OC (stereo not given),> 100
11,Nc1c2c(nc3cc(F)c(F)cc13)CCC2,> 100
12,Cc1cc2c(cc1Cl)SC(NS(=O)(=O)c1ccc(Cl)cc1)=NS2(=O)=O,> 100
13,CC1(C)CC(=O)c2[nH]c3ccccc3c2CC(=O)NCCc2cn1cn2,> 100
14,COC(=O)CCC1=CCC2(SC)C(=O)Nc3cccc1c32 (stereo not given),> 100
15,CCCCc1c(N(C)C)c(OC(C)=O)c(-c2cn(C)c3ccccc23)oc1=O,59.8
16,CC(C)(C)[Si](C)(C)OCC1OC(n2ccc(N)nc2=O)C(O[Si](C)(C)C(C)(C)C)C1O[Si](C)(C)C(C)(C)C (stereo not given),10.2
17,Nc1ccc2c(c1)N(C(=O)c1cc3cc(NC(=O)c4cc5ccccc5o4)ccc3[nH]1)CC2CCl (stereo not given),> 46.4
18,O=C(O)c1ccc(N=C(C(=Nc2ccc(C(=O)O)cc2)c2ccccc2)c2ccccc2)cc1,> 100

# Test system: SF-268 CNS
# Assay: DTP human tumour cell line panel, 48 h
row,SMILES,TGI [µM]
1,OC1[C@@H]2[C@@H](O)[C@H](O)[C@@H](O)N2C[C@@H]1O (stereo not given in full),> 100
2,OCC1OC(c2cccc3cc(O)c(O)cc23)CC1O (stereo not given),> 100
3,CC(C)(Cl)C(Br)CCC(C)(Cl)C(Br)CBr (stereo not given),> 100
4,O=C1NC(NNc2ccccc2)=N/C1=C\c1ccccc1O,> 100
5,Cc1cc(C)nc(NC(=O)c2ccc(Br)s2)c1,> 100
6,CC(C)(C)OC(=O)N1CCc2[nH][nH]c(=O)c2C1,> 100
7,COC(=O)c1cc2c3c(ccc2[nH]1)N(C(=O)c1cc2cc(OC)c(OC)c(OC)c2[nH]1)CC3CCl (stereo not given),> 100
8,OCCCCCCCCCCCOc1ccc(C2OCC3(CO2)COC(c2ccc(OCCCCCCCCCCCO)cc2)OC3)cc1 (stereo not given),> 50
9,O=Cc1cn(CCCCCCCCCCCCn2cc(C=O)c3ccccc32)c2ccccc12,> 100
10,COC(=O)c1ccc(C(=O)NC(Cc2ccc(Oc3cc(CC(NC(=O)c4ccccc4C(=O)OC)C(=O)OC)ccc3OC)cc2)C(=O)OC)cc1 (stereo not given),> 100
11,COc1cc(C2SCC(=O)N2c2ccccn2)cc(OC)c1OC (stereo not given),> 100
12,Nc1c2c(nc3cc(F)c(F)cc13)CCC2,> 100
13,Cc1cc2c(cc1Cl)SC(NS(=O)(=O)c1ccc(Cl)cc1)=NS2(=O)=O,> 100
14,CS(=O)(=O)O[C@H]1CN2C[C@@H](O)[C@@H](O)[C@H]2[C@H]1CO,> 100
15,CC1(C)CC(=O)c2[nH]c3ccccc3c2CC(=O)NCCc2cn1cn2,> 100
16,COC(=O)CCC1=CCC2(SC)C(=O)Nc3cccc1c32 (stereo not given),> 100
17,CCCCc1c(N(C)C)c(OC(C)=O)c(-c2cn(C)c3ccccc23)oc1=O,88.9
18,CC(C)(C)[Si](C)(C)OCC1OC(n2ccc(N)nc2=O)C(O[Si](C)(C)C(C)(C)C)C1O[Si](C)(C)C(C)(C)C (stereo not given),7.27
19,O=C(O)c1ccc(N=C(C(=Nc2ccc(C(=O)O)cc2)c2ccccc2)c2ccccc2)cc1,> 100

# Test system: SK-OV-3 ovarian
# Assay: DTP human tumour cell line panel, 48 h
row,SMILES,TGI [µM]
1,OC1[C@@H]2[C@@H](O)[C@H](O)[C@@H](O)N2C[C@@H]1O (stereo not given in full),> 100
2,OCC1OC(c2cccc3cc(O)c(O)cc23)CC1O (stereo not given),> 100
3,CC(C)(Cl)C(Br)CCC(C)(Cl)C(Br)CBr (stereo not given),> 100
4,O=C1NC(NNc2ccccc2)=N/C1=C\c1ccccc1O,> 100
5,Cc1cc(C)nc(NC(=O)c2ccc(Br)s2)c1,> 100
6,CC(C)(C)OC(=O)N1CCc2[nH][nH]c(=O)c2C1,> 100
7,COC(=O)c1cc2c3c(ccc2[nH]1)N(C(=O)c1cc2cc(OC)c(OC)c(OC)c2[nH]1)CC3CCl (stereo not given),> 100
8,OCCCCCCCCCCCOc1ccc(C2OCC3(CO2)COC(c2ccc(OCCCCCCCCCCCO)cc2)OC3)cc1 (stereo not given),> 50
9,O=Cc1cn(CCCCCCCCCCCCn2cc(C=O)c3ccccc32)c2ccccc12,> 100
10,COC(=O)c1ccc(C(=O)NC(Cc2ccc(Oc3cc(CC(NC(=O)c4ccccc4C(=O)OC)C(=O)OC)ccc3OC)cc2)C(=O)OC)cc1 (stereo not given),> 100
11,COc1cc(C2SCC(=O)N2c2ccccn2)cc(OC)c1OC (stereo not given),> 100
12,Nc1c2c(nc3cc(F)c(F)cc13)CCC2,> 100
13,Cc1cc2c(cc1Cl)SC(NS(=O)(=O)c1ccc(Cl)cc1)=NS2(=O)=O,> 100
14,CS(=O)(=O)O[C@H]1CN2C[C@@H](O)[C@@H](O)[C@H]2[C@H]1CO,> 100
15,CC1(C)CC(=O)c2[nH]c3ccccc3c2CC(=O)NCCc2cn1cn2,> 100
16,COC(=O)CCC1=CCC2(SC)C(=O)Nc3cccc1c32 (stereo not given),> 100
17,CCCCc1c(N(C)C)c(OC(C)=O)c(-c2cn(C)c3ccccc23)oc1=O,> 100
18,CC(C)(C)[Si](C)(C)OCC1OC(n2ccc(N)nc2=O)C(O[Si](C)(C)C(C)(C)C)C1O[Si](C)(C)C(C)(C)C (stereo not given),6.36
19,Nc1ccc2c(c1)N(C(=O)c1cc3cc(NC(=O)c4cc5ccccc5o4)ccc3[nH]1)CC2CCl (stereo not given),> 33.4
20,O=C(O)c1ccc(N=C(C(=Nc2ccc(C(=O)O)cc2)c2ccccc2)c2ccccc2)cc1,> 100

# Test system: ACHN renal
# Assay: DTP human tumour cell line panel, 48 h
row,SMILES,TGI [µM]
1,OC1[C@@H]2[C@@H](O)[C@H](O)[C@@H](O)N2C[C@@H]1O (stereo not given in full),> 100
2,OCC1OC(c2cccc3cc(O)c(O)cc23)CC1O (stereo not given),> 100
3,CC(C)(Cl)C(Br)CCC(C)(Cl)C(Br)CBr (stereo not given),52.6
4,O=C1NC(NNc2ccccc2)=N/C1=C\c1ccccc1O,> 100
5,Cc1cc(C)nc(NC(=O)c2ccc(Br)s2)c1,> 100
6,COC(=O)c1cc2c3c(ccc2[nH]1)N(C(=O)c1cc2cc(OC)c(OC)c(OC)c2[nH]1)CC3CCl (stereo not given),> 100
7,OCCCCCCCCCCCOc1ccc(C2OCC3(CO2)COC(c2ccc(OCCCCCCCCCCCO)cc2)OC3)cc1 (stereo not given),> 50
8,O=Cc1cn(CCCCCCCCCCCCn2cc(C=O)c3ccccc32)c2ccccc12,> 100
9,COC(=O)c1ccc(C(=O)NC(Cc2ccc(Oc3cc(CC(NC(=O)c4ccccc4C(=O)OC)C(=O)OC)ccc3OC)cc2)C(=O)OC)cc1 (stereo not given),> 100
10,COc1cc(C2SCC(=O)N2c2ccccn2)cc(OC)c1OC (stereo not given),> 100
11,Nc1c2c(nc3cc(F)c(F)cc13)CCC2,> 100
12,Cc1cc2c(cc1Cl)SC(NS(=O)(=O)c1ccc(Cl)cc1)=NS2(=O)=O,> 100
13,CS(=O)(=O)O[C@H]1CN2C[C@@H](O)[C@@H](O)[C@H]2[C@H]1CO,> 100
14,CC1(C)CC(=O)c2[nH]c3ccccc3c2CC(=O)NCCc2cn1cn2,> 100
15,COC(=O)CCC1=CCC2(SC)C(=O)Nc3cccc1c32 (stereo not given),> 100
16,CCCCc1c(N(C)C)c(OC(C)=O)c(-c2cn(C)c3ccccc23)oc1=O,> 100
17,CC(C)(C)[Si](C)(C)OCC1OC(n2ccc(N)nc2=O)C(O[Si](C)(C)C(C)(C)C)C1O[Si](C)(C)C(C)(C)C (stereo not given),3.21
18,Nc1ccc2c(c1)N(C(=O)c1cc3cc(NC(=O)c4cc5ccccc5o4)ccc3[nH]1)CC2CCl (stereo not given),11.6
19,O=C(O)c1ccc(N=C(C(=Nc2ccc(C(=O)O)cc2)c2ccccc2)c2ccccc2)cc1,> 100
